Three compounds from patent US11696913B2, “Prolonged ectoparasite-controlling agent for animal” (MITSUI CHEMICALS AGRO, INC., priority 2017, dated 2023) can be followed below.

Read-outs that look alike come from different tables or passages of the source. Some results are limits rather than exact numbers.

In experiment [1] the test system is Ctenocephalides felis. The experiment in a line: Topical treatment in-vivo test with cat flea on rats. Particulars: topical spot-on. The method, then: (§1) Topical Treatment In-Vivo Test with American Dog Tick Nymph and Cat Flea on Rats
(§2) Type of study and overall study design: The method is a randomized non-blinded efficacy study in accordance with European animal welfare requirements. Rats (Rattus norvegicus) were randomized based on pre-treatment flea counts. The efficacy of treatment was determined by comparison of the flea and tick counts of different treatment groups versus the placebo-treated control group. The experimental unit was the individual study animal.
(§3) Method and route of administration: The compound was applied in a suitable solvent and carrier (more specifically, added to the following mixture: 33.3% by weight propylene carbonate, […] N-methylpyrrolidone, 0.1% by weight BHA, 0.05% by weight BHT) considering the individual body weight as topical spot-on between the shoulder blades directly onto the skin.
(§4) Experimental infestation: On the day of treatment and weekly thereafter, 30 ticks (D. variabilis nymphs) were released onto the back of each rat, and 30 fleas (C. felis) were released onto the back of each rat 24 h later.
(§5) Tick and Flea counting: Rats were thoroughly examined and ticks and fleas were manually removed 48 h (+4 h) after tick infestation and 24 h after flea infestation. Live fleas and live attached engorged ticks were counted. In non-evident cases, engorgement status was evaluated by squeezing the tick on a filter paper to find traces of blood as sign for engorgement.

The test system of experiment [2] is Dermacentor variabilis. Briefly: Systemic treatment in-vivo test with American dog tick nymph on rats. To be noted: intraperitoneal injection; for inhibition in vivo at 2 mg/kg / inhibition in vivo at 10 mg/kg: Dermacentor variabilis, ip. The method, then: (§6) Systemic Treatment In-Vivo Test with American Dog Tick Nymph and Cat Flea on Rats
(§7) Type of study and overall study design: The method is a randomized non-blinded efficacy study in accordance with European animal welfare requirements. Rats (Rattus norvegicus) were randomized based on pre-treatment flea counts. The efficacy of treatment was determined by comparison of the flea and tick counts of different treatment groups versus the placebo-treated control group. The experimental unit was the individual study animal. Method and route of administration: The compound was applied in a suitable solvent and carrier (more specifically, added to glycerol formal; in case of poorly soluble compounds, a solvent mixture with up to 25% by volume of N-methyl pyrrolidone may be used.) considering the individual body weight as an intraperitoneal injection.
as §4
(§8) Tick and Flea counting: Rats were thoroughly examined and ticks and fleas were manually removed 48 h (±4 h) after tick infestation and 24 h after flea infestation. Live fleas and live attached engorged ticks were counted. In non-evident cases, engorgement status was evaluated by squeezing the tick on a filter paper to find traces of blood as sign for engorgement.

In experiment [3] the test system is Ctenocephalides felis. The experiment in a line: Systemic treatment in-vivo test with cat flea on rats. Particulars: intraperitoneal injection; for inhibition in vivo at 2 mg/kg / inhibition in vivo at 10 mg/kg: Ctenocephalides felis, ip. The method, then: as §6, §7, §4, §8
Experiment [4] concerns Ctenocephalides felis. The experiment in a line: In vitro contact test with fleas. To be noted: read-out: insecticidal activity. An outline of the steps: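 Activity is the percentage of fleas dead or moribund at 48 h, judged by immobility or uncoordinated movement after tapping. Tubes were coated by evaporating acetone solutions (900 ppm gives 5 μg/cm^2), then held 5-10 adult fleas of both sexes at room temperature and ambient humidity.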

Experiment [5] has as its system Dermacentor variabilis. The experiment in a line: In vitro contact test with adult hard ticks (Dermacentor variabilis). To be noted: read-out: acaricidal activity. An outline of the steps:
(§9)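 Acaricidal activity = % ticks dead or moribund after 48 h contact with acetone-deposited compound on vial walls (e.g., 900 ppm solution → 5 μg/cm^2). Ambient conditions for R. sanguineus, 21° C./85% rel. hum. for other species; heat challenge at 45-50° C. separated climbers from moribund ticks.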

The next experiment deals with Ixodes ricinus. The experiment in a line: In vitro contact test with adult hard ticks (Ixodes ricinus). Particulars: read-out: acaricidal activity. An outline of the steps: as §9
The test system of the next experiment is Rhipicephalus sanguineus. The experiment in a line: In vitro contact test with adult hard ticks (Rhipicephalus sanguineus). To be noted: read-out: acaricidal activity. Put shortly:
as §9

For experiment [6], the system named is Rhipicephalus (Boophilus) microplus. Briefly: In vitro injection test with Rhipicephalus (Boophilus) microplus (BOOPMI Inj). Particulars: 168 h, laid fertile eggs after 7 days, read-out: acaricidal activity. An outline of the steps: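 Five engorged adult females each get a 1 μl abdominal injection of compound dissolved and diluted in DMSO. Kept 7 days at 28° C./85% rel. hum.; percent activity rates egg laying and egg fertility (0% all fertile, 100% none laid or infertile).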

In experiment [7] the test system is Ctenocephalides felis. The experiment in a line: Ctenocephalides felis in-vitro feeding test with fleas (CTECFE oral). To be noted: 48 hours, read-out: insecticidal feeding activity. An outline of the steps:
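Scored as percent fleas killed (0–100%) 48 hours after feeding began. Compound, dissolved in DMSO and diluted into citrated cattle blood, was offered via a parafilm membrane to roughly 20 adult male and female C. felis at about 37° C.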

Another experiment relates to Spodoptera litura. Briefly: Insecticidal testing against common cutworm. Format: in vivo. Particulars: foliar, 144 h, concentration 100 ppm, cabbage leaf dip, second-stage larvae, after 6 days, read-out: pesticidal rate. The source says:
Insecticidal Testing Against Common Cutworm (Spodoptera litura)

The subject of the next experiment is Plutella xylostella. The experiment in a line: Insecticidal testing against diamondback moth. Type of experiment: in vivo. To be noted: foliar, 144 h, concentration 100 ppm, cabbage leaf dip, third-stage larvae, after 6 days, read-out: pesticidal rate. From the text: Insecticidal Testing Against Diamondback Moth (Plutella xylostella)
In a further experiment the test system is Laodelphax striatellus. The experiment in a line: Insecticidal testing against small brown planthopper. Type of experiment: in vivo. Particulars: 144 h, concentration 100 ppm, sprayed rice seedlings, after 6 days, read-out: pesticidal rate. Put shortly:
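Acetone solution of compound at a set concentration sprayed onto rice seedlings, air-dried, then exposed to 10 planthoppers (one group). Held at 25° C; survival rate recorded after 6 days.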

The subject of experiment [8] is Dermacentor variabilis. The experiment in a line: Topical treatment in-vivo test with American dog tick nymph on rats. To be noted: topical spot-on, 25 mg/kg. As to the method: as §1, §2, §3, §4, §5
Setting [9] is: 2 mg/kg, SD 2, read-out: Geometric mean percent reduction in live tick (Dermacentor variabilis) counts compared to untreated control rats.
Where [10] appears, read: 2 mg/kg, SD 9, read-out: Geometric mean percent reduction in live tick (Dermacentor variabilis) counts compared to untreated control rats.
[11] abbreviates: 2 mg/kg, SD 16, read-out: Geometric mean percent reduction in live tick (Dermacentor variabilis) counts compared to untreated control rats.

Regarding `O=C(CNC(=O)c1ccc(C2=NOC(c3cc(Cl)cc(C(F)(F)F)c3)(C(F)(F)F)C2)c2ccccc12)NCC(F)(F)F` (centres unmarked) [Afoxolaner, afoxolaner, reference compound], the “Geometric mean percent reduction in live flea (Ctenocephalides felis) counts compared to untreated control rats” value in the experiment with Ctenocephalides felis [1] (10 mg/kg, SD 2) was determined as 100%; in the experiment with Ctenocephalides felis [1] (10 mg/kg, SD 9), 99%; in the experiment on Ctenocephalides felis [1] (10 mg/kg, SD 16) it was 51%; in the experiment with Ctenocephalides felis [1] (10 mg/kg, SD 23) it was 16%; with Ctenocephalides felis [3] (2 mg/kg, SD 2), 69%; in the experiment on Ctenocephalides felis [3] (2 mg/kg, SD 9), 20%. In addition, the “Geometric mean percent reduction in live flea (Ctenocephalides felis) counts compared to untreated control rats” value in the experiment on Ctenocephalides felis [3] (2 mg/kg, SD 16) is 48%; in the experiment on Ctenocephalides felis [3] (10 mg/kg, SD 2), 100%; in the experiment with Ctenocephalides felis [3] (10 mg/kg, SD 9), 97%; in the experiment with Ctenocephalides felis [3] (10 mg/kg, SD 16), 60%; in the experiment with Ctenocephalides felis [3] (10 mg/kg, SD 23) it was 0%. Moreover, the “Geometric mean percent reduction in live tick (Dermacentor variabilis) counts compared to untreated control rats” value in the experiment with Dermacentor variabilis [2] (2 mg/kg, SD 2) is 86%; in the experiment with Dermacentor variabilis [2] (2 mg/kg, SD 9), 53%; in the experiment with Dermacentor variabilis [2] (2 mg/kg, SD 16), 5%; in the experiment with Dermacentor variabilis [2] (10 mg/kg, SD 2) it was 100%; in the experiment on Dermacentor variabilis [2] (10 mg/kg, SD 9) it was 10%; in the experiment with Dermacentor variabilis [2] (10 mg/kg, SD 16), 78%. In addition, the “Geometric mean percent reduction in live tick (Dermacentor variabilis) counts compared to untreated control rats” value in the experiment on Dermacentor variabilis [2] (10 mg/kg, SD 23) came out at 0%.
For `CN(C(=O)c1ccc(F)cc1)c1cccc(C(=O)Nc2c(I)cc(C(F)(C(F)(F)F)C(F)(F)F)cc2OC(F)F)c1F` [Compound 90], the pest or weed control at 0.04 µg/cm2, 0.04 µg/cm2 with Ctenocephalides felis [4] (dose 0.04 μg/cm^2, dead or moribund fleas after 48 h) worked out at 95%. In addition, the pest or weed control at 0.2 µg/cm2, 0.2 µg/cm2 in the experiment with Ctenocephalides felis [4] (dose 0.2 μg/cm^2, dead or moribund fleas after 48 h) was found to be 95%; in the experiment with Dermacentor variabilis [5] (dose 0.2 μg/cm^2, 48 h), 90%; in the experiment with Rhipicephalus sanguineus (dose 0.2 μg/cm^2, 48 h), 90%. Also, the pest or weed control at 1 µg/cm2, 1 µg/cm2 in the experiment with Ctenocephalides felis [4] (dose 1 μg/cm^2, dead or moribund fleas after 48 h) was found to be 95%; in the experiment on Dermacentor variabilis [5] (dose 1 μg/cm^2, 48 h), 90%; with Ixodes ricinus (dose 1 μg/cm^2, 48 h), 90%; in the experiment with Rhipicephalus sanguineus (dose 1 μg/cm^2, 48 h), 90%. The pest or weed control at 5 µg/cm2, 5 µg/cm2 in the experiment with Ixodes ricinus (dose 5 μg/cm^2, 48 h) is 90%. In addition, the pest or weed control at 6.4 ng in experiment [6] (dose 0.0064 μg/animal injected) is 100%. The pest or weed control at 32 ng in experiment [6] (dose 0.032 μg/animal injected) worked out at 100%. Moreover, the pest or weed control at 0.00016 mg in [6] (dose 0.16 μg/animal injected) was found to be 100%. In experiment [6] (dose 0.8 μg/animal injected), the pest or weed control at 0.0008 mg is 100%. Further, the pest or weed control at 0.032 ppm with Ctenocephalides felis [7] (dose 0.032 ppm in citrated cattle blood) was found to be 95%. The pest or weed control at 0.16 ppm in the experiment on Ctenocephalides felis [7] (dose 0.16 ppm in citrated cattle blood) was 95%. Besides, in the experiment with Ctenocephalides felis [7] (dose 0.8 ppm in citrated cattle blood), the pest or weed control at 0.8 ppm is 95%. In addition, in the experiment on Ctenocephalides felis [7] (dose 4 ppm in citrated cattle blood), the pest or weed control at 4 ppm turned out to be 95%. For the same compound, the inhibition in vivo at 2 mg/kg with Dermacentor variabilis [2] (setting [9]) was 100%; in the experiment on Dermacentor variabilis [2] (setting [10]), 83%; with Dermacentor variabilis [2] (setting [11]), 29%. The pest or weed control at 100 ppm with Spodoptera litura, in the experiment on Plutella xylostella and in the experiment with Laodelphax striatellus was ≥ 70% throughout.
As for `CN(C(=O)c1ccccc1)c1cccc(C(=O)Nc2c(Br)cc(C(F)(C(F)(F)F)C(F)(F)F)cc2C(F)(F)F)c1F` [Compound (B), reference compound], the “Geometric mean percent reduction in live tick (Dermacentor variabilis) counts compared to untreated control rats” value in the experiment on Dermacentor variabilis [8] (SD 2) was 58%; in the experiment with Dermacentor variabilis [8] (SD 9), 85%; in the experiment on Dermacentor variabilis [8] (SD 16), 65%; with Dermacentor variabilis [8] (SD 23), 4%. Also, the “Geometric mean percent reduction in live flea (Ctenocephalides felis) counts compared to untreated control rats” value was 84% in the experiment with Ctenocephalides felis [1] (25 mg/kg, SD 2); 72% in the experiment with Ctenocephalides felis [1] (25 mg/kg, SD 9); 45% in the experiment on Ctenocephalides felis [1] (25 mg/kg, SD 16). Also, the inhibition in vivo at 2 mg/kg in the experiment with Dermacentor variabilis [2] (setting [9]) amounted to 75%; in the experiment with Dermacentor variabilis [2] (setting [10]), 63%; with Dermacentor variabilis [2] (setting [11]), 0%; in the experiment on Ctenocephalides felis [3] (2 mg/kg, SD 2, read-out: Geometric mean percent reduction in live flea (Ctenocephalides felis) counts compared to untreated control rats), 97%; in the experiment on Ctenocephalides felis [3] (2 mg/kg, SD 9, read-out: Geometric mean percent reduction in live flea (Ctenocephalides felis) counts compared to untreated control rats), 32%. Also, the inhibition in vivo at 10 mg/kg with Dermacentor variabilis [2] (10 mg/kg, SD 2, read-out: Geometric mean percent reduction in live tick (Dermacentor variabilis) counts compared to untreated control rats) was determined as 100%; in the experiment on Dermacentor variabilis [2] (10 mg/kg, SD 9, read-out: Geometric mean percent reduction in live tick (Dermacentor variabilis) counts compared to untreated control rats) it was 11%; in the experiment with Dermacentor variabilis [2] (10 mg/kg, SD 16, read-out: Geometric mean percent reduction in live tick (Dermacentor variabilis) counts compared to untreated control rats), 2%; with Ctenocephalides felis [3] (10 mg/kg, SD 2, read-out: Geometric mean percent reduction in live flea (Ctenocephalides felis) counts compared to untreated control rats) it was 100%; with Ctenocephalides felis [3] (10 mg/kg, SD 9, read-out: Geometric mean percent reduction in live flea (Ctenocephalides felis) counts compared to untreated control rats), 53%; in the experiment on Ctenocephalides felis [3] (10 mg/kg, SD 16, read-out: Geometric mean percent reduction in live flea (Ctenocephalides felis) counts compared to untreated control rats), 6%.
